For one series, the system named is H441GL. Description: Cytotoxicity, sulforhodamine B (SRB) assay, H441GL. Conditions: Homo sapiens, 48 h, NA indicates no activity. In kind it is cell-based, Human.
The next series relates to SUIT-2. Description: Cytotoxicity, sulforhodamine B (SRB) assay, SUIT-2. In kind it is cell-based, human. To be noted: Homo sapiens, SUIT-2, Pancreas, 48 h. An excerpt:
(§1) Human non-small cell lung cancer (NSCLC) cell lines (e.g., A549, H441GL and H1299), colon cancer cell lines (e.g., HCT116 and DLD1), breast cancer cell lines (e.g., MCF7 and MDA-MB-231), and pancreatic cancer cell lines (e.g., PANC-1 and SUIT-2) were used in cytotoxicity studies. These NSCLC cell lines have intrinsic resistance to epidermal growth factor receptor (EGFR) inhibitors, e.g., gefitinib. A549 and H441GL are EGFR-wild type adenocarcinoma cell lines. H1299 is an EGFR-wild type large cell carcinoma cell line. HCT116 and DLD1 are metastatic colon cell lines. MCF7 is a hormone-responsive breast cancer cell line. MDA-MB-231 is a triple-negative breast cancer cell line. PANC-1 is a metastatic adenocarcinoma cell line. SUIT-2 is a pancreatic ductal adenocarcinoma cell line.
(§2) All cell lines were grown and maintained in RPMI medium supplemented with 10% fetal bovine serum (FBS, Invitrogen), 2 mM L-glutamine, 100 U/mL penicillin, and 100 μg/mL streptomycin. For cell the culture experiment, stock solution (10 mM) of each test compound was dissolved in dimethyl sulfoxide (DMSO; Sigma).
(§3) Cells were plated in 96-well plates at a density of 2000 cells per well in triplicate. The cells in each well were treated on the third day (to ensure proper plating efficiency and vitality) with different concentrations (0-50 μM) of each test compound for 48 h.
(§4) Cell viability was assessed using the sulforhodamine B (SRB) assay. The medium was discarded, and the adherent cells were fixed by 100 μL of cold 10% trichloroacetic acid (w/v) in each well for 1 h at 4° C. After fixation, cells were stained with 100 μL/well of 0.4% (w/v, in 1% acetic acid) SRB solution for 30 min at room temperature, and then washed 5 times with 1% acetic acid. After air-drying, 100 μL of 10 mM Tris base was added to each well and the absorbance was read at 530 nm. Cytotoxicity is expressed as the percent of cells in drug treated wells relative to number of cells in the solvent only control (set to 100%). Each experiment was performed independently in triplicate and cytotoxicity IC50 value of each test compound was calculated from cytotoxicity data obtained at various concentrations.

A further series deals with lung cancer cells. Description: Cytotoxicity SRB assay, summary of Table 2. In kind it is cell-based, Human. To be noted: summary in words of Table 2. The gist of the method: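 Cells plated at 2000/well, treated on day 3 with 0–50 μM compound for 48 h. Viability by SRB: TCA fixation, SRB staining, Tris solubilisation, absorbance at 530 nm, as percent of solvent control. IC50 calculated from triplicate independent experiments across concentrations.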

For a further series, the system named is DLD1. Description: Cytotoxicity, sulforhodamine B (SRB) assay, DLD1. The format is cell-based, human. To be noted: Homo sapiens, DLD-1, DLD1, Colon, 48 h.
From the text: as §1, §2, §3, §4

Another series has as its system MCF7. Kind of series: Cytotoxicity, sulforhodamine B (SRB) assay, MCF7. The format is cell-based, human. To be noted: Homo sapiens, MCF7, Breast, 48 h.
From the text: as §1, §2, §3, §4

The subject of another series is PANC-1. Kind of series: Cytotoxicity, sulforhodamine B (SRB) assay, PANC-1. In kind it is cell-based, human. Conditions: Homo sapiens, PANC-1, Pancreas, 48 h, NA = no activity.
From the text: as §1, §2, §3, §4

In the next series the test system is H441GL cells. Description: Study 2: tumor size in mouse lung cancer model. In kind it is in vivo, NOD/SCID mice. Conditions: Study 2, 0.0127 mmol/kg daily, i.p.; for Tumor Size [Fold Change from Week 3 (Mean ± SD, n = 4)] Week 3: Week 3 (baseline, start of treatment). The protocol: H441GL cells (1×10^6 cells in 100 μL phosphate-buffered saline/injection) were subcutaneously injected into the right flank of NOD/SCID mice (female, 4-6 weeks old). Mice were allowed 2 weeks for tumor growth. On the first day of Week 3 post injection, tumor-bearing mice were randomly divided into control group (DMSO vehicle, intraperitoneal (i.p.) injection) and test compound treatment groups (5 mg/kg/day, 5 days/week, i.p. injection). Over the period of 10 weeks, tumorigenesis in both groups was measured using a caliper on a weekly basis. The change in tumor size was expressed as in fold change from Week 3. In this study body weight of each mouse was also recorded at the end of each study week.
In this study, the daily dose was 0.0127 mmol/kg instead of 5 mg/kg.

The test system of the next series is H1299. Description: Cytotoxicity, sulforhodamine B (SRB) assay, H1299. In kind it is cell-based. To be noted: Homo sapiens, NCI-H1299, H1299, 48 h.
From the text: as §1, with “These NSCLC cell lines have intrinsic resistance to epidermal growth factor receptor (EGFR) inhibitors, e.g., gefitinib.” left out
as §2, §3, §4

The next series deals with MDA-MB-231. Description: Cytotoxicity, sulforhodamine B (SRB) assay, MDA-MB-231. The format is cell-based, human. Conditions: Homo sapiens, MDA-MB-231, Breast, 48 h.
From the text: as §1, §2, §3, §4

A further series deals with A549. Kind of series: Cytotoxicity, sulforhodamine B (SRB) assay, A549. The format is cell-based, Human. To be noted: Homo sapiens, A549, 48 h, NA indicates no activity.
The subject of another series is HCT116. Kind of series: Cytotoxicity, sulforhodamine B (SRB) assay, HCT116. In kind it is cell-based, human. To be noted: Homo sapiens, HCT-116, HCT116, Colon, 48 h.
From the text: as §1, §2, §3, §4

Another series deals with NSCLC cells. Conditions: from WO2015/184794, WO2013/060305, Yeh et al. 2012; cited from earlier work.
Series [1] concerns CSCs in human NSCLC cell lines. To be noted: from US 2014/0294994, WO2013/060305, WO2015/184794; cited from earlier work.

Consider `COCC(COCC(COCC(COCCOCCOCCN1CCN(CCCN2c3ccccc3Sc3ccc(C(F)(F)F)cc32)CC1)OC)OC)OC` (stereo not drawn) [Compound 25-1b, NDT-[CH2CH2O]n—[CH2CH(OCH3)CH2O]3—CH3], for which the IC50 in the series on H441GL was 8.8 µM; in the series with SUIT-2, 10.9 µM; in the series on DLD1 it was 11.7 µM; in the series on MCF7, 12.2 µM; in the series on PANC-1, 10 µM; with H1299 it was 6.9 µM. Moreover, the half-inhibitory concentration (IC50) turned out to be 11.2 µM in the series on MDA-MB-231, 11.4 µM in the series with A549 and 7.2 µM with HCT116. The “inhibition of cell proliferation of lung cancer cells” value (“inhibition” below) with lung cancer cells is given as “inhibit cell proliferation”. Moreover, in the series on H441GL cells, the “Tumor Size [Fold Change from Week 3 (Mean ± SD, n = 4)] Week 3” value was 1 ± 0 Fold Change. Besides, in the series with H441GL cells, the “Tumor Size [Fold Change from Week 3 (Mean ± SD, n = 4)] Week 9” value was determined as 10.2 ± 1.4 Fold Change. Further, the “Tumor Size [Fold Change from Week 3 (Mean ± SD, n = 4)] Week 13” value in the series with H441GL cells came out at 25.0 ± 4.4 Fold Change.

Consider `COCC(COCC(COCC(COCCOCCOCCOCCOCCOCCOCCOCCOCCN1CCN(CCCN2c3ccccc3Sc3ccc(C(F)(F)F)cc32)CC1)OC)OC)OC` (stereo not drawn) [Compound 25-2b, NDT-[CH2CH2O]n—[CH2CH(OCH3)CH2O]3—CH3], for which the IC50 in the series on H441GL worked out at 11.4 µM; with SUIT-2, 13 µM; in the series on DLD1, 15.3 µM; in the series on MCF7, 10.9 µM; with PANC-1, 2.9 µM; in the series with H1299 it was 13.9 µM. For the same compound, the IC50 in the series on MDA-MB-231 worked out at 13.1 µM; with A549, 14 µM; in the series with HCT116, 11.4 µM. Moreover, the “inhibition” value in the series with lung cancer cells was “inhibit cell proliferation”. In the series with H441GL cells, the “Tumor Size [Fold Change from Week 3 (Mean ± SD, n = 4)] Week 3” value is 1 ± 0 Fold Change. The “Tumor Size [Fold Change from Week 3 (Mean ± SD, n = 4)] Week 9” value with H441GL cells is on record as 13.0 ± 1.6 Fold Change. The “Tumor Size [Fold Change from Week 3 (Mean ± SD, n = 4)] Week 13” value in the series on H441GL cells is 35.7 ± 5.3 Fold Change.

Consider `COCCOCCOCCOCC(COCC(COCC(CN1CCN(CCCN2c3ccccc3Sc3ccc(Cl)cc32)CC1)OC)OC)OC` (stereo not drawn) [Compound 26-1a, NDP-[CH2CH(OCH3)CH2O]3—[CH2CH2O]n—CH3], for which the IC50 was determined as 12.1 µM in the series with H441GL; 25.8 µM in the series with SUIT-2; 22.3 µM in the series on DLD1; 14.6 µM with MCF7; 15.8 µM in the series with PANC-1; 24.9 µM in the series on H1299. Besides, the IC50 with MDA-MB-231 is 13.5 µM; with A549, 11.2 µM; in the series with HCT116 it was 11.2 µM. The “inhibition” value with lung cancer cells was “inhibit cell proliferation”.

As for `COCCOCCOCCOCCOCCOCCOCCOCCOCCOCC(COCC(COCC(CN1CCN(CCCN2c3ccccc3Sc3ccc(Cl)cc32)CC1)OC)OC)OC` (stereo not drawn) [Compound 26-2a, NDP-[CH2CH(OCH3)CH2O]3—[CH2CH2O]n—CH3], the IC50 with H441GL is 25.4 µM; with SUIT-2, 26.9 µM; in the series with DLD1, 32.8 µM; with MCF7, 24.2 µM; with PANC-1, 27.9 µM; in the series with H1299, 42.6 µM. For the same compound, the IC50 stood at 16.3 µM with MDA-MB-231, 23.8 µM in the series on A549 and 13.3 µM with HCT116. For the same compound, the “inhibition” value in the series on lung cancer cells is on record as “inhibit cell proliferation”.

Turning to `COCCOCCOCCOCCOCCOCCOCCOCCOCCOCC(COCC(COCC(CN1CCN(CCCN2c3ccccc3Sc3ccc(C(F)(F)F)cc32)CC1)OC)OC)OC` (stereo not drawn) [Compound 26-2b, NDT-[CH2CH(OCH3)CH2O]3—[CH2CH2O]n—CH3], the IC50 with H441GL was found to be 12.1 µM; with SUIT-2, 17.2 µM; in the series on DLD1, 19.2 µM; with MCF7, 10 µM; with PANC-1, 12.9 µM; in the series with H1299 it was 25.3 µM. The IC50 in the series on MDA-MB-231 is 12.5 µM; in the series on A549 it was 15.6 µM; in the series on HCT116, 8.9 µM. In addition, in the series with lung cancer cells, the “inhibition” value is “inhibit cell proliferation”.

For `OCC(O)COCC(O)COCC(O)CN1CCN(CCCN2c3ccccc3Sc3ccc(Cl)cc32)CC1` (stereo not drawn) [Compound 33a, NDP-[CH2CH(OH)CH2O]3—H], the IC50 was found to be 25 µM with H441GL; 34 µM in the series on SUIT-2; 35.2 µM in the series with DLD1; 26 µM in the series with MCF7; 30.2 µM in the series on PANC-1; 28.4 µM in the series with H1299. Besides, the IC50 came out at 24.2 µM with MDA-MB-231, 35.2 µM with A549 and 20.2 µM in the series with HCT116. In the series with lung cancer cells, the “inhibition” value was “inhibit cell proliferation”.

Turning to `OCC(O)COCC(O)COCC(O)CN1CCN(CCCN2c3ccccc3Sc3ccc(C(F)(F)F)cc32)CC1` (stereo not drawn) [Compound 33b, NDT-[CH2CH(OH)CH2O]3—H], the IC50 in the series with H441GL turned out to be 17.9 µM; with SUIT-2, 25.7 µM; with DLD1 it was 26.4 µM; with MCF7, 13.8 µM; in the series on PANC-1 it was 23.5 µM; in the series on H1299 it was 20.8 µM. Moreover, the IC50 in the series on MDA-MB-231 stood at 14.8 µM; in the series with A549 it was 19.8 µM; with HCT116, 14.9 µM. Also, the “inhibition” value in the series on lung cancer cells is “inhibit cell proliferation”.

As to `Clc1ccc2c(c1)N(CCCN1CCNCC1)c1ccccc1S2` [NDP, 10-[3-(1-Piperazinyl)propyl]-2-chloro-10H-phenothiazine, reference compound], the IC50 is 8.4 µM in the series on H441GL, 6.6 µM in the series with H1299 and 9.7 µM in the series on A549. The “inhibition” value in the series on lung cancer cells is on record as “inhibit cell proliferation”. Also, in the series on NSCLC cells, the “cytotoxicity to NSCLC cells” value is “shown cytotoxicity”.

With `CN1CCN(CCCN2c3ccccc3Sc3ccc(Cl)cc32)CC1` [PCP, prochlorperazine], in the series on lung cancer cells, the “inhibition” value is recorded as “inhibit cell proliferation”. Besides, the “cytotoxicity to NSCLC cells” value in the series on NSCLC cells is reported as “shown cytotoxicity”. In addition, the “anti-tumor effects, growth of CSCs in human NSCLC cell lines” value in [1] is reported as “inhibiting the growth of CSCs”.

Take `CN1CCN(CCCN2c3ccccc3Sc3ccc(C(F)(F)F)cc32)CC1` [TFP, trifluoperazine, reference compound]: the IC50 in the series on H441GL was 21.6 µM; in the series on H1299 it was 28.7 µM; in the series on A549 it was 23.5 µM. The “inhibition” value in the series on lung cancer cells was “inhibit cell proliferation”. In addition, the “cytotoxicity to NSCLC cells” value with NSCLC cells was “shown cytotoxicity”. The “anti-tumor effects, growth of CSCs in human NSCLC cell lines” value in series [1] was “inhibiting the growth of CSCs”.
